In the assay the target is T1, recombinant human sEH (Homo sapiens, UniProt P34913).
T1 construct: purchased Cayman Chemical 10011669
T1 sequence (P34913 1-555): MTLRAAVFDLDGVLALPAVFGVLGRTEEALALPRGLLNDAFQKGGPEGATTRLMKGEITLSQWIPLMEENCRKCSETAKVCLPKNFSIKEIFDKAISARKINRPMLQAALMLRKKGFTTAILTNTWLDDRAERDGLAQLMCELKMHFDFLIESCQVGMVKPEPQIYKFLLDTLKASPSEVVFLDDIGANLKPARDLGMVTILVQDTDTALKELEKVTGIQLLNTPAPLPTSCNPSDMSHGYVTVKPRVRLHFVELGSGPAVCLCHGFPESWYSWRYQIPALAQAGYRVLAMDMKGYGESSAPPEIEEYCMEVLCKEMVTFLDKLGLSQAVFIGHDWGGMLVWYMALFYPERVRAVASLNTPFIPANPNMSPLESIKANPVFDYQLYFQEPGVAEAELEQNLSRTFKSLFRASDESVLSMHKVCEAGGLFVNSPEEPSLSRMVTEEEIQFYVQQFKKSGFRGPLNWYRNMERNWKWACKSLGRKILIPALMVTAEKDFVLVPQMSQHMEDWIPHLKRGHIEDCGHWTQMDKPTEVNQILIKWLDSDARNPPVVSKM
Nature of the assay: In vitro determination of sEH inhibition activity (fluorescent assay, PHOME substrate). Format: biochemical. The note with it: mean ± Standard Error, min. three replicates, read-out: IC50 (nM) ± SE, sEH inhibition activity. The procedure: 3-(Phenyl-oxiranyl)-acetic acid cyano-(6-methoxy-naphthalen-2-yl)-methyl ester (PHOME; from Cayman Chemical, item number 10009134; CAS 1028430-42-3); cf. N. M. Wolf et al., Anal. Biochem. 2006, vol. 355, pp. 71-80.
Solutions: • Assay buffer: Bis/Tris HCl 25 mM pH 7.0 containing 0.1 mg/mL of bovine serum albumin (BSA). • PHOME at 200 μM in DMSO. • Solution of recombinant human sEH (Cayman Chemical, item number 10011669), diluted with assay buffer. • Inhibitors dissolved in DMSO at appropriated concentrations.
In a black 96-well plate (Greiner Bio-One, item number 655900), fill the background wells with 90 μL and the positive control and inhibitor wells with 85 μL of assay buffer. Add 5 μL of DMSO to background and positive control wells, and then add 5 μL of inhibitor solution in inhibitor wells. Add 5 μL of the solution of hsEH to the positive control and inhibitor wells and mix several time. Prepare a 1/21 dilution of the solution of PHOME with assay buffer according to final volume required, and then add 105 μL of each well. Shake carefully the plate for 10 seconds and incubate for 5 minutes at room temperature. […] Results were obtained by regression analysis from at least three data points in a linear region of the curve. IC50 values are average of minimum three independent replicates.

From US20200079786A1, “ANALOGS OF […] AS SOLUBLE EPOXIDE HYDROLASE INHIBITORS” (UNIVERSITAT DE BARCELONA, priority 2015, published 2020) come the findings set out here.

Usually IC50 stands for the concentration that gives 50% inhibition. Turning to `O=C(Nc1ccc(F)c(F)c1F)NC12CC3CC(C1)CC(c1ccccc1)(C3)O2` [Ie, 1-(3-phenyl-2-oxaadamantan-1-yl)-3-(2,3,4-trifluorophenyl)urea], the IC50 came to 21.3 ± 4.3 nM.
As to `O=C(Nc1ccc(F)c(F)c1F)N[C@@]12CC3C[C@H](C1)C[C@](C1CCCCC1)(C3)O2` (stereo in doubt) [Id, 1-(3-cyclohexyl-2-oxaadamantan-1-yl)-3-(2,3,4-trifluorophenyl)urea], the IC50 was 17.5 ± 3.6 nM.
